Test results: US11994512B2, “Single-cell genomic methods to generate ex vivo cell systems that recapitulate in vivo biology with improved fidelity” (Massachusetts Institute of Technology, priority 2018, dated 2024)

System: intracellular proteome of ENR+CD and ENR organoids
Experiment: LC-MS/MS TMT proteomics of ENR+CD versus ENR organoids
Format: cell-based, C57BL/6 mice
Details: for change: up = enriched in ENR+CD, down = enriched in ENR, FDR<0.05 and log fold change cut-off
Description: Because PCs are highly secretory, protein-rich cells, Applicants sought to assess the total intracellular proteome between conditions through liquid chromatography mass spectrometry (LC-MS/MS)-based proteomics. Applicants quantified relative protein abundance across eight samples using isobaric mass tag labeling from four ENR and four ENR+CD samples (M1-1 through M2-2, first digit denotes biological donor, second digit denotes technical replicate) (FIG. 3A). Samples were processed and analyzed in a single 10-plex by LC-MS/MS (FIG. 9A).
To affirm the reproducibility of the associated proteins in the ENR+CD-enriched proteome, Applicants performed relative quantification within differentiation sets.
Mass spectrometry proteomics sample preparation, sequencing, and quantification. Organoid cell pellets were isolated from Matrigel with mechanical dissociation and washed (cold PBS 5X) to remove residual extracellular protein. Proteins were extracted from cell pellets with 8 M urea (Sigma), reduced with 5 mM DTT (Thermo Fisher Pierce) for 45 minutes, alkylated with 10 mM IAA (Sigma) for 45 minutes in the dark, and double digested with both Lysyl Endopeptidase “LysC” (Wako) and trypsin (Promega) overnight at RT. A small aliquot of cellular lysate was removed from each sample for protein quantification via the Pierce™ BCA Protein Assay Kit (Pierce). After proteolytic digestion, the samples were quenched using formic acid to a final concentration of 1.0% and subsequently desalted on 10 mg OASIS HLB solid phase columns (Waters).
The peptides were labeled with TMT-10 isobaric mass tag reagent according to manufacturer's instructions (ThermoFisher Scientific). The peptides were labeled at a 1:8 ratio of peptide to TMT reagent, followed by 1-hour incubation at RT with bench top shaking at 850 rpm. After incubation, a […] of labeled tryptic peptide was removed from each labeled condition, desalted with C18 stage tips, and analyzed via LC-MS/MS using a Thermo Fisher Q Exactive Plus Hybrid Mass Spectrometer (QE-Plus) coupled to a Thermo Fisher EASY-nLC 1000 liquid chromatograph to ensure isobaric label incorporation >95%. An additional 1.0 μg of labeled tryptic peptide was removed from each channel, mixed together, desalted on a C18 stage tip, and analyzed via LC-MS to ensure equal relative protein loads. During these quality control steps, the labeled peptides were stored, unquenched at −80° C.

[1] = protein abundance, ENR+CD versus ENR organoids, aggregate of the four sample pairs
[2] = protein abundance, ENR+CD versus ENR organoids, replicate M1-1, log2 ratio
[3] = protein abundance, ENR+CD versus ENR organoids, replicate M1-2, log2 ratio
[4] = protein abundance, ENR+CD versus ENR organoids, replicate M2-1, log2 ratio
[5] = protein abundance, ENR+CD versus ENR organoids, replicate M2-2, log2 ratio
[6] = ENR+CD versus ENR organoids, sample pairs in aggregate (n=4, 2 technical replicates from two biological donors)
[7] = protein abundance ratio ENR+CD versus ENR organoids, sample pair M1-1, LC-MS/MS TMT proteomics
[8] = protein abundance ratio ENR+CD versus ENR organoids, sample pair M1-2, LC-MS/MS TMT proteomics
[9] = protein abundance ratio ENR+CD versus ENR organoids, sample pair M2-1, LC-MS/MS TMT proteomics
[10] = protein abundance ratio ENR+CD versus ENR organoids, sample pair M2-2, LC-MS/MS TMT proteomics

Row | Substance | Average logFC [1] | M1-1 Log2 Median Normalized [2] | M1-2 Log2 Median Normalized [3] | M2-1 Log2 Median Normalized [4] | M2-2 Log2 Median Normalized [5] | change | Average logFC [6] | M1-1 Log2 Median Normalized [7] | M1-2 Log2 Median Normalized [8] | M2-1 Log2 Median Normalized [9] | M2-2 Log2 Median Normalized [10]
1 | P02802 | −1.725 | −2.19 | −2.322 | −1.3715 | −1.016 | down |  |  |  |  | 
2 | Q91WA1 |  |  |  |  |  | down | −1.673 | −1.929 | −0.883 | −1.5765 | −2.303
3 | P09405 | −1.217 | −1.377 | −0.807 | −1.0695 | −1.615 | down |  |  |  |  | 
4 | Q7JJ13 |  |  |  |  |  | down | −1.145 | −1.243 | −0.748 | −0.9235 | −1.666
5 | B9EJA2 | −1.156 | −1.439 | −1.031 | −0.9535 | −1.2 | down |  |  |  |  | 
6 | P47968 | −1.292 | −0.958 | −1.223 | −1.2935 | −1.827 | down |  |  |  |  | 
7 | Q80SU7 |  |  |  |  |  | down | −1.224 | −1.279 | −0.758 | −1.2235 | −1.338
8 | P84102 (MTRGNQRELARQKNMKKQSDSVKGKRRDDGLSAAARKQRDSEIMQQKQKKANEKKEEPK; full-length; UniProt P84102 1-59, looked up) | 1.286 | 1.517 | 0.63 | 2.2205 | 0.775 | up |  |  |  |  | 
9 | Q8BHB9 |  |  |  |  |  | down | −1.288 | −1.576 | −1.245 | −1.3195 | −1.01
10 | P56382 (MVAYWRQAGLSYIRFSQICAKAVRDALKTEFKANAEKTSGSSIKIVKVSKKE; full-length; UniProt P56382 1-52, looked up) | −2.387 | −1.051 | −3.179 | −1.3955 | −3.924 | down |  |  |  |  | 
11 | P07310 | −2.279 | −1.418 | −3.14 | −2.0165 | −2.541 | down |  |  |  |  | 
12 | P07309 | 1.249 | 1.309 | 0.951 | 1.2255 | 1.511 | up |  |  |  |  | 
13 | Q9JMC3 |  |  |  |  |  | up | 1.386 | 1.758 | 0.805 | 1.3105 | 1.67
14 | Q60936 |  |  |  |  |  | down | −1.292 | −1.293 | −1.012 | −1.8255 | −1.133
15 | Q60997 |  |  |  |  |  | down | −1.332 | −1.643 | −0.987 | −1.1555 | −1.543
16 | Q8VHB5 |  |  |  |  |  | down | −1.632 | −1.611 | −1.401 | −1.7625 | −1.754

Row | Substance | Average logFC [1] | M1-1 Log2 Median Normalized [2] | M1-2 Log2 Median Normalized [3] | M2-1 Log2 Median Normalized [4] | M2-2 Log2 Median Normalized [5] | change | Average logFC [6] | M1-1 Log2 Median Normalized [7] | M1-2 Log2 Median Normalized [8] | M2-1 Log2 Median Normalized [9] | M2-2 Log2 Median Normalized [10]
17 | Q91VE6 |  |  |  |  |  | down | −1.411 | −1.492 | −1.242 | −1.0275 | −1.884
18 | O70514 | −1.202 | −1.413 | −1.091 | −1.0895 | −1.216 | down |  |  |  |  | 
19 | O70472 | 1.172 | 1.419 | 0.87 | 1.3875 | 1.011 | up |  |  |  |  | 
20 | Q9CPS7 |  |  |  |  |  | down | −1.227 | −1.383 | −1.226 | −0.9215 | −1.327
21 | Q9D937 |  |  |  |  |  | down | −1.943 | −2.074 | −1.942 | −1.0675 | −2.286
22 | Q9ET22 |  |  |  |  |  | up | 1.277 | 1.451 | 1.159 | 1.3455 | 1.153
23 | P02798 | −2.904 | −2.904 | −2.907 | −2.2505 | −3.047 | down |  |  |  |  | 
24 | Q4ACU6 |  |  |  |  |  | down | −1.637 | −1.525 | −1.512 | −1.6745 | −1.835
25 | Q52KR3 |  |  |  |  |  | down | −1.393 | −2.118 | −0.268 | −1.3905 | −1.67
26 | P18894 | −1.376 | −1.222 | −1.706 | −1.8305 | −0.745 | down |  |  |  |  | 
27 | P56716 | 1.303 | 0.494 | 1.733 | 1.3015 | 1.329 | up |  |  |  |  | 
28 | Q9R0M0 |  |  |  |  |  | up | 1.229 | 1.297 | 0.675 | 1.2135 | 1.732
29 | P97328 | −1.236 | −1.151 | −2.263 | −1.4115 | −0.12 | down |  |  |  |  | 
30 | Q80TR4 |  |  |  |  |  | up | 1.235 | 1.316 | 1.587 | 1.2175 | 0.818
31 | Q8R0T2 |  |  |  |  |  | down | −1.493 | −1.662 | −0.647 | −0.8365 | −2.825
